25 molecules from patent US12187709B2 (Genentech, Inc., priority 2021, dated 2025) can be followed below.

For experiment [1], the target named is Cbl-b (Homo sapiens (Human), UniProt Q13191). Kind of experiment: Cbl-b LCK Ub TR-FRET assay (Cbl-b Lck HTRF). The class given is biochemical. Particulars: for IC50: Cbl-b LCK Ub TR-FRET; for fold-selectivity (Cbl-b over C-cbl): ratio C-cbl Lck HTRF IC50 / Cbl-b Lck HTRF IC50. The method, then:
(§1) 6 μL of detection mixture was added to all wells and briefly centrifuged before incubating for 20 min at room temperature. […] IC50 was generated using no LCK as the low control and DMSO as the high control.
(Time-resolved FRET reads energy transfer from a long-lived donor to a nearby acceptor.)

The target of experiment [2] is c-Cbl (Homo sapiens (Human), UniProt P22681). Kind of experiment: C-Cbl LCK Ub TR-FRET assay (C-cbl Lck HTRF). The class given is biochemical. The method, then:
as §1

In experiment [3] the target is Human Cbl-b (residues 40-426) (Homo sapiens (Human), UniProt Q13191). Briefly: Cbl-b SPR assay. Particulars: C-cbl SPR Kd vs Cbl-b SPR Kd. It is filed as binding. On the procedure: Affinity of binding to Cbl-b and c-Cbl for compounds described herein was assessed by surface plasmon resonance (SPR) according to the following protocol.
A surface capture range of 1300-1500 RU of protein was used for both isoforms.
For SPR measurements, 6 concentrations with 2 fold serial dilution were measured with blanks flanking each series for double referencing. […] SPR sensorgrams were recorded in multi-cycle kinetics format, with a contact time of 60 seconds and a flow rate of 40 μl/min, the dissociation time was varied between 120-1200 seconds aiming for 4-5 half-lives of the measured interaction.
Kinetic and affinity parameters were extracted from the multicycle kinetics data fitting to a 1:1 binding model using the Biacore™ Incyte evaluation software (Cytiva).
Chaser assay utilize a single cycle kinetics SPR experiment with a contact time of 120 seconds, a flow rate of 50 μl/min and a dissociation time of 450 seconds. Single cycle kinetics titration utilized an initial blank injection and 5 concentrations with 2 fold serial dilution with a maximum concentration of 500 nM, blanked to a preceding 6 point blank single cycle kinetics injection for double referencing.
The kd is measured independently by determining the percentage unoccupied compound binding site over time by measuring the binding of a chaser compound measured by SPR.
Chaser binding was measured by a multicycle kinetics SPR experiment using a contact time of 20 seconds, a flow rate of 30 μl/min, and a dissociation time of 120 seconds. […] The % compound bound at a given time was determined by comparison to a single injection of chaser preceding the single cycle kinetics titration defined below. % Compound Bound=(1−(RUT/RUT0))*100
The % compound bound is plotted against time in seconds and fit to a single exponential, where the exponent represents the kd of the compound-protein complex. The single cycle kinetics experiment of the compound is then fit with a fixed kd determined using the chaser.

Chain of Human Cbl-b (residues 40-426) (Q13191 40-426): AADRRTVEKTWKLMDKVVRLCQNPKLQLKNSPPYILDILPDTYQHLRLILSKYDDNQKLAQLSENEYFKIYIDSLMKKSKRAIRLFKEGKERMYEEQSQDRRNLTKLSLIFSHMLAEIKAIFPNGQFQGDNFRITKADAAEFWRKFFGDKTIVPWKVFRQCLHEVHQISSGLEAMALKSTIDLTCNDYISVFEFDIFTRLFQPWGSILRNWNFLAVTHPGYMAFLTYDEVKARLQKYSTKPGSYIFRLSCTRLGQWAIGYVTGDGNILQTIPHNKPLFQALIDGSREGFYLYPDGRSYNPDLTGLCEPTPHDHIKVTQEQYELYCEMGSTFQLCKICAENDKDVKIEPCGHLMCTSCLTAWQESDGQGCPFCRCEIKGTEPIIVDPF
Chain of Cbl-b (Q13191 40-426): as above
Chain of c-Cbl (P22681 47-435): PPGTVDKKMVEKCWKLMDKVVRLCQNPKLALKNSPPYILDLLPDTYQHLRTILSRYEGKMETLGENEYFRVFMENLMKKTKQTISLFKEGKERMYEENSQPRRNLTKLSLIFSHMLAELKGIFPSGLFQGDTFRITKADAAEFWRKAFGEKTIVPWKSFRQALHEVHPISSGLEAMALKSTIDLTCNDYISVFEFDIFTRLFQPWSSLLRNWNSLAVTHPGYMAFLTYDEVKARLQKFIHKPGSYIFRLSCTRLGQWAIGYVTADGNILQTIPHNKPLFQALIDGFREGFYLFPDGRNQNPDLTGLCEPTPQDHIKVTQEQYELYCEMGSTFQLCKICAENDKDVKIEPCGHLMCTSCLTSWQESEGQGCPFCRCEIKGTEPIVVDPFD

The term IC50 denotes the concentration that gives 50% inhibition. A lower IC50 goes with greater potency. Turning to `Cn1cnnc1[C@](O)(c1cccc(N2Cc3c(cc(CNC4(C)CCC4)cc3C(F)(F)F)C2=O)c1)C1CCC1` (single isomer, unassigned) [Compound 1], in experiment [1], the IC50 is 8.3 µM and the “fold-selectivity (Cbl-b over C-cbl)” value is listed as “(1.7x)”. In experiment [2], this molecule showed an IC50 of 14.1 µM.
Regarding `CC(C)[C@H]1CN(C)CCN1Cc1cc2c(c(C(F)(F)F)c1)CN(c1cccc([C@@H](c3nncn3C)C3COC3)c1)C2=O` (single isomer, unassigned) [Compound 10], in experiment [1], 0.012 µM corresponded to half-maximal inhibition (IC50) and the “fold-selectivity (Cbl-b over C-cbl)” value is “(2.0x)”. Further, the IC50 in experiment [2] was determined as 0.024 µM.
In the same order, the values of `CC(C)[C@H]1CN(C)CCN1Cc1cc2c(c(C(F)(F)F)c1)CN(c1cccc([C@H](c3nncn3C)C3COC3)c1)C2=O` (single isomer, unassigned) [Compound 11] are 5.1 µM, “(3.9x)” and no less than 20 µM.
Consider `Cn1cnnc1[C@H](c1cccc(N2Cc3c(cc(CNC4(C)CCC4)cc3C(F)(F)F)C2=O)c1)N1CCC1` (single isomer, unassigned) [Compound 32], for which, in experiment [1], half-maximal inhibition (IC50) was put at 3.8 µM and the “fold-selectivity (Cbl-b over C-cbl)” value was “(5.3x)”. In experiment [2], this molecule showed an IC50 of 20 µM.
Taken in the same sequence, the figures for `Cn1cnnc1[C@@H](c1cccc(N2Cc3c(cc(CNC4(C)CCC4)cc3C(F)(F)F)C2=O)c1)N1CCC1` (single isomer, unassigned) [Compound 33] were 0.15 µM, “(4.8x)” and 0.72 µM.
As to `C[C@H](NC1CCC1)c1cc2c(c(C(F)(F)F)c1)CN(c1cccc(C3(c4nncn4C)CC(F)(F)C3)c1)C2=O` (single isomer, unassigned) [Compound 37], the IC50 was determined as 0.0066 µM in experiment [1] and 0.0099 µM in experiment [2]. In addition, the “fold-selectivity (Cbl-b over C-cbl)” value in experiment [1] is reported as “(1.5x)”.
Regarding `C[C@@H](NC1CCC1)c1cc2c(c(C(F)(F)F)c1)CN(c1cccc(C3(c4nncn4C)CC(F)(F)C3)c1)C2=O` (single isomer, unassigned) [Compound 38], in experiment [1], half-maximal inhibition (IC50) required 0.011 µM and the “fold-selectivity (Cbl-b over C-cbl)” value is reported as “(2.9x)”. Also, half-maximal inhibition in experiment [2] (IC50) required 0.032 µM.
Taken in the same sequence, the figures for `CO[C@H](c1cccc(N2Cc3c(cc(CNC4(C)CCC4)cc3C(F)(F)F)C2=O)c1)c1nncn1C` (single isomer, unassigned) [Compound 42] were 0.18 µM, “(1.5x)” and 0.27 µM.
Taken in the same sequence, the figures for `CO[C@@H](c1cccc(N2Cc3c(cc(CNC4(C)CCC4)cc3C(F)(F)F)C2=O)c1)c1nncn1C` (single isomer, unassigned) [Compound 43] were 0.47 µM, “(1.2x)” and 0.56 µM.
As to `Cn1cnnc1[C@@H](OC1CC1)c1cccc(N2Cc3c(cc(CNC4(C)CCC4)cc3C(F)(F)F)C2=O)c1` (single isomer, unassigned) [Compound 44], in experiment [1], the midpoint of inhibition, the IC50, lay at 4.2 µM and the “fold-selectivity (Cbl-b over C-cbl)” value was “(2.4x)”. In addition, the IC50 in experiment [2] worked out at 10 µM.
Consider `Cn1cnnc1[C@H](OC1CC1)c1cccc(N2Cc3c(cc(CNC4(C)CCC4)cc3C(F)(F)F)C2=O)c1` (single isomer, unassigned) [Compound 45], for which, in experiment [1], the IC50 turned out to be 0.29 µM and the “fold-selectivity (Cbl-b over C-cbl)” value was “(1.4x)”. The same molecule came in with an IC50 in experiment [2] of 0.41 µM.
For the molecule `Cn1cnnc1[C@@H](OC1CCC1)c1cccc(N2Cc3c(cc(CNC4(C)CCC4)cc3C(F)(F)F)C2=O)c1` (single isomer, unassigned) [Compound 46], in experiment [1], the IC50 is no less than 20 µM and the “fold-selectivity (Cbl-b over C-cbl)” value is on record as “(1.0x)”. In experiment [2], this molecule registered an IC50 of 20 µM.
Take `Cn1cnnc1[C@H](c1cccc(N2Cc3c(cc(CNC4(C)CCC4)cc3C(F)(F)F)C2=O)c1)N1CC(F)(F)C1` (single isomer, unassigned) [Compound 56]: the results for the IC50 in experiment [1] and in experiment [2] were 1 µM and 6.7 µM, respectively. In experiment [1], the “fold-selectivity (Cbl-b over C-cbl)” value is given as “(6.7x)”.
Taken in the same sequence, the figures for `Cn1cnnc1[C@@H](c1cccc(N2Cc3c(cc(CNC4(C)CCC4)cc3C(F)(F)F)C2=O)c1)N1CC(F)(F)C1` (single isomer, unassigned) [Compound 57] were 10 µM, 19 µM and “(1.9x)”.
As to `Cn1cnnc1[C@@]1(c2cccc(N3Cc4c(cc(CNC5(C)CCC5)cc4C(F)(F)F)C3=O)c2)CCC(F)(F)C1` (single isomer, unassigned) [Compound 106], the results for the IC50 in experiment [1] and in experiment [2] were 0.023 µM and 0.081 µM, respectively. Also, in experiment [1], the “fold-selectivity (Cbl-b over C-cbl)” value is on record as 3.5x.
For `Cc1cnnn1[C@H](c1cccc(N2Cc3c(cc(CNC4(C)CCC4)cc3C(F)(F)F)C2=O)c1)C1COC1` (single isomer, unassigned) [Compound 136], in experiment [1], the IC50 was no less than 20 µM and the “fold-selectivity (Cbl-b over C-cbl)” value worked out at 1.0x. The same molecule showed an IC50 in experiment [2] of 20 µM.
For `Cn1cnnc1[C@](O)(c1cccc(N2Cc3c(cc(CNC4(C)CCC4)cc3C(F)(F)F)C2=O)c1)C1COC1` (single isomer, unassigned) [Compound 144], the IC50 in experiment [1] came to 4.5 µM; in experiment [2], 8.2 µM. In addition, in experiment [1], the “fold-selectivity (Cbl-b over C-cbl)” value came to 1.6x.
In the same order, the values of `Cn1cnnc1[C@@H](c1cccc(N2Cc3c(cc(CNC4(C)CCC4)cc3C(F)(F)F)C2=O)c1)C1(O)COC1` (single isomer, unassigned) [Compound 146] are 4 µM, 9.2 µM and 2.3x.
For the molecule `Cn1cnnc1C(F)(c1cccc(N2Cc3c(cc(CNC4(C)CCC4)cc3C(F)(F)F)C2=O)c1)C1COC1` (single isomer, unassigned) [Compound 151], in experiment [1], half-maximal inhibition (IC50) required 3.8 µM and the “fold-selectivity (Cbl-b over C-cbl)” value stood at 2.1x. The IC50 in experiment [2] was determined as 7.9 µM.
In the case of `Cn1cnnc1[C@](O)(c1ccccc1)c1cccc(N2Cc3c(cc(CNC4(C)CCC4)cc3C(F)(F)F)C2=O)c1` (single isomer, unassigned) [Compound 154], the IC50 was no less than 20 µM in experiment [1] and 20 µM in experiment [2]. The “fold-selectivity (Cbl-b over C-cbl)” value in experiment [1] was determined as 1.0x.
As to `Cn1cnnc1[C@H](c1cccc(N2Cc3c(cc(CNC4(C)CCC4)cc3C(F)(F)F)C2=O)c1)C1CCOCC1.O=CO` (single isomer, unassigned) [Compound 291], the “fold-selectivity (Cbl-b over C-cbl)” value in experiment [1] was 4.3x. This molecule displayed a Fold of selectivity in experiment [3] of 2.1×.
Regarding `Cn1cnnc1[C@]1(c2cc(NC3CCCCC3)nc(N3Cc4c(cc(CNC5(C)CCC5)cc4C(F)(F)F)C3=O)c2)C[C@@H](C)C1` [Compound 50, 2-(6-(cyclohexylamino)-4-((1r,3r)-3-methyl-1-(4-methyl-4H-1,2,4-triazol-3-yl)cyclobutyl)pyridin-2-yl)-6-(((1-methylcyclobutyl)amino)methyl)-4-(trifluoromethyl)isoindolin-1-one], in experiment [1], the IC50 was determined as 0.031 µM and the “fold-selectivity (Cbl-b over C-cbl)” value is “(1.7x)”. In experiment [3], this molecule registered a Fold of selectivity of 3.0×.
In the same order, the values of `Cn1cnnc1[C@]1(c2cc(NC3CCCC3)nc(N3Cc4c(cc(CNC5(C)CCC5)cc4C(F)(F)F)C3=O)c2)C[C@@H](C)C1` [Compound 52, 2-(6-(cyclopentylamino)-4-((1r,3r)-3-methyl-1-(4-methyl-4H-1,2,4-triazol-3-yl)cyclobutyl)pyridin-2-yl)-6-(((1-methylcyclobutyl)amino)methyl)-4-(trifluoromethyl)isoindolin-1-one] are 0.0072 µM, “(1.3x)” and 11×.
Taken in the same sequence, the figures for `Cn1cnnc1[C@]1(c2cc(NC3CCCC3)nc(N3Cc4c(cc(CNC5(C)CCC5)cc4C(F)(F)F)C3=O)c2)C[C@H](C)C1` [Compound 53, 2-(6-(cyclopentylamino)-4-((1s,3s)-3-methyl-1-(4-methyl-4H-1,2,4-triazol-3-yl)cyclobutyl)pyridin-2-yl)-6-(((1-methylcyclobutyl)amino)methyl)-4-(trifluoromethyl)isoindolin-1-one] were 0.0057 µM, “(1.1x)” and 9.2×.
On to `Cn1cnnc1[C@]1(c2cc(OC3CCCC3)nc(N3Cc4c(cc(CNC5(C)CCC5)cc4C(F)(F)F)C3=O)c2)C[C@H](C)C1` [Compound 54, 2-(6-(cyclopentyloxy)-4-((1s,3s)-3-methyl-1-(4-methyl-4H-1,2,4-triazol-3-yl)cyclobutyl)pyridin-2-yl)-6-(((1-methylcyclobutyl)amino)methyl)-4-(trifluoromethyl)isoindolin-1-one], for which, in experiment [1], the IC50 was found to be 0.0082 µM and the “fold-selectivity (Cbl-b over C-cbl)” value is listed as “(1.4x)”. Besides, the Fold of selectivity in experiment [3] is reported as 11×.
